In publication PMC11106165, “Repurposing the KCa3.1 Blocker Senicapoc for Ischemic Stroke” (Translational Stroke Research, 2023):

What was measured:
[1] = Plasma protein binding by rapid equilibrium dialysis; format: in vitro ADME; conditions: mouse plasma, triplicate
Procedure: (§1) In order to determine whether senicapoc sufficiently engages its target, additional mice were subjected to 60 min of MCAO, treated with 40 mg/kg senicapoc IP 12 h after reperfusion and then sacrificed 1 h, 4 h, and 12 h later. Mice were deeply anesthetized with isoflurane, and blood was collected from the vena cava into EDTA tubes, and then transcardially perfused with 30 mL of saline. The brain was removed, and the forebrain divided into ipsi- and contralateral side. Brain and plasma samples were stored at − 80 °C pending analysis and then prepared and analyzed as previously described using a Waters Acquity UPLC (Waters, NY) equipped with a Acquity UPLC BEH 1.7 μm C-18 column interfaced to a TSQ Quantum Access Max mass spectrometer (Thermo Fisher Scientific, MA). Senicapoc was analyzed by the selective reaction monitoring transition of its molecular ion peak 324.09 (M + 1) into 228.07, 200.07, 183.11, and 122.18 m/z. An 8-point calibration curve ranging from 50 nM to 10 μM was used for quantification. Senicapoc plasma protein binding was determined with mouse plasma or mouse brain extract in triplicate using rapid equilibrium devices with a molecular weight cutoff of 8 kD (RED, Fisher Scientific).

[2] = test system: male C57BL/6 J mice, tMCAO; experiment: tMCAO (60 min) in mice, infarct area by T2-weighted MRI; format: in vivo, mouse
Procedure: Reversible focal cerebral ischemia was induced by occlusion of the left middle cerebral artery (MCA) according to the classic filament method of Zea Longa as previously described for mice by our laboratory. All surgeries were performed in the MicroSurgery Core of the UC Davis School of Medicine by a microsurgeon with 20 years of surgical experience using a silicone rubber-coated nylon monofilament with a tip diameter of 0.21 ± 0.02 mm (No. 702112PK5Re, Doccol Corporation). Anesthesia was induced with 5% isoflurane and then maintained with 0.5 to 1.5% isoflurane in medical pure oxygen administered through a facemask. To assure consistent and continuous reduction of cerebral blood flow (CBF), a laser Doppler (Moor Instruments: MOORVMS-LDF) probe adapter was affixed to the surface of the skull over the brain area supplied by the MCA using dental cement. The probe remained in place throughout the MCAO surgery and CBF was measured continuously to confirm occlusion and later establishment of reperfusion. Animals were kept under anesthesia and body temperature was monitored throughout the whole procedure and maintained at > 36.5 °C using a feedback-controlled heating pad. Following 60 min of MCAO, the filament was withdrawn to allow reperfusion. Blood flow measurements were continued for another 15 min before removing the adapter and the laser Doppler probe. Animals received subcutaneous Buprenex at 0.02 mg/kg every 12 h to limit post-surgical pain for 24 h after surgery. The survival rate was 93%. […] In this study, out of the animals surviving to day 8 (45 out of 48), two animals were excluded because they lacked an obvious neurological deficit score at 12 h. Animals that met inclusion criteria were assigned to the 3 groups (low- and high-dose senicapoc or vehicle) based on a computer-generated randomization scheme. […]
Infarct volume was evaluated with T2-weighted MRI imaging in the Nuclear Magnetic Resonance Facility at UC Davis. […] The multi-slice multi-echo (sequence (TE:56 ms; TR: 1681.2 ms) was used to acquire images of 7 coronal sections with 1-mm thickness from the junction of olfactory bulb and cortex. The infarct area was analyzed with Adobe Photoshop Elements by an investigator blinded to the treatments. On day 3, infarct area was corrected for edema and calculated with the equation: (L − N)/L × 100%; L, left (contralateral) hemisphere area; N, non-infarcted tissue area in the ipsilateral hemisphere. By day 8 post tMCAO, there typically is either only minimal or no associated cerebral edema, so no correction for edema is required and the percentage of infarcted area was calculated with the equation: (Infarct Area/Ipsilateral Hemisphere Area) × 100%.

[3] = Brain tissue extract binding by rapid equilibrium dialysis; format: in vitro ADME; conditions: mouse brain extract, triplicate
Procedure: as §1

[4] = test system: male C57BL/6 J mice, tMCAO; experiment: tMCAO in mice, 14-point tactile and proprioceptive limb-placing score; format: in vivo, mouse; conditions: for maximum neurological score reached: vehicle maximum 5; for average neurological score (14-point): started 12 h, day 8, vehicle average 3
Procedure: Reversible focal cerebral ischemia was induced by occlusion of the left middle cerebral artery (MCA) according to the classic filament method of Zea Longa as previously described for mice by our laboratory. All surgeries were performed in the MicroSurgery Core of the UC Davis School of Medicine by a microsurgeon with 20 years of surgical experience using a silicone rubber-coated nylon monofilament with a tip diameter of 0.21 ± 0.02 mm (No. 702112PK5Re, Doccol Corporation). Anesthesia was induced with 5% isoflurane and then maintained with 0.5 to 1.5% isoflurane in medical pure oxygen administered through a facemask. To assure consistent and continuous reduction of cerebral blood flow (CBF), a laser Doppler (Moor Instruments: MOORVMS-LDF) probe adapter was affixed to the surface of the skull over the brain area supplied by the MCA using dental cement. The probe remained in place throughout the MCAO surgery and CBF was measured continuously to confirm occlusion and later establishment of reperfusion. Animals were kept under anesthesia and body temperature was monitored throughout the whole procedure and maintained at > 36.5 °C using a feedback-controlled heating pad. Following 60 min of MCAO, the filament was withdrawn to allow reperfusion. Blood flow measurements were continued for another 15 min before removing the adapter and the laser Doppler probe. Animals received subcutaneous Buprenex at 0.02 mg/kg every 12 h to limit post-surgical pain for 24 h after surgery. The survival rate was 93%. […] In this study, out of the animals surviving to day 8 (45 out of 48), two animals were excluded because they lacked an obvious neurological deficit score at 12 h. Animals that met inclusion criteria were assigned to the 3 groups (low- and high-dose senicapoc or vehicle) based on a computer-generated randomization scheme. Six sham animals, where the filament was placed into the external carotid artery but not advanced, were used as controls for the qPCR experiments.
Starting at 12 h after tMCAO, and following the first neurological scoring, animals received either the vehicle, Miglyol 812 neutral oil (Medium chain triglycerides, Spectrum Chemicals), a low dose of senicapoc at 10 mg/kg, or a high dose of senicapoc at 40 mg/kg via intraperitoneal (IP) injection. Mice then received the same dosage of senicapoc (or vehicle) IP every 12 h for a total of 14 doses. In the experiment in Fig. 7, drug administration was started 3 h after reperfusion. Senicapoc was synthesized in our laboratory as described. Chemical identity and purity (> 98%) were tested by ^1H and ^13C-NMR and HPLC.
Since filament MCAO induces infarction in both the striatum and the cortex, we used the 14-point score tactile and proprioceptive limp-placing test to evaluate mice every 24 h. […] The scoring was performed as previously described in detail. The investigator performing the scoring was blinded to the treatment groups.

[5] = test system: patients with sickle cell disease and healthy volunteers; conditions: cited from earlier work

## NC(=O)C(c1ccccc1)(c1ccc(F)cc1)c1ccc(F)cc1 [senicapoc]
[1]
  binding to plasma protein: 96.8 ± 0.5%
[2]; 10 mg/kg IP twice daily started 12 h after reperfusion, day 8, n = 7, vehicle 20.5 ± 1.3%
  T2-weighted lesion area: 11.6 ± 1.1%
[2]; 40 mg/kg IP twice daily started 12 h after reperfusion, day 8, n = 7, vehicle 20.5 ± 1.3%
  T2-weighted lesion area: 9.3 ± 1.3%
[2]; 40 mg/kg started 3 h after tMCAO, day 3, n = 8, P = 0.199, vehicle 21.4 ± 2.3%
  T2-weighted lesion area: 16.1 ± 3.1%
[2]; 40 mg/kg started 3 h after tMCAO, day 8, n = 8, P = 0.0318, vehicle 16.6 ± 1.0%
  T2-weighted lesion area: 11.7 ± 1.8%
[3]
  binding to brain tissue extract: 98.1 ± 0.5%
[4]; 10 mg/kg low-dose group
  maximum neurological score reached: 9
[4]; 10 mg/kg
  average neurological score (14-point): 7
[4]; 40 mg/kg high-dose group
  maximum neurological score reached: 10
[4]; 40 mg/kg started 3 h after tMCAO
  sensorimotor coordination (neurological deficit score): improved on both day 3 and day 8
[4]; 40 mg/kg
  average neurological score (14-point): 9
[5]; 10 mg/day, double-blind placebo-controlled
  hemolysis, hematocrit and hemoglobin levels in phase II study: reduced hemolysis and significantly increased hematocrit and hemoglobin levels
[5]
  phase III endpoint: reduction in number of vaso-occlusive pain crises: did not meet the set clinical endpoint
[5]; healthy volunteers and patients with sickle cell disease
  tolerability in dose escalating phase I clinical trials: well tolerated
